How the values were obtained:
NEP [1] = target: T1, NEP (Rattus norvegicus, UniProt P07861); assay: 3H-Substance P hydrolysis by rat spinal cord slices; type: biochemical; conditions: 25° C., over 30 min incubation, read-out: inhibition of Substance P degradation
T1 construct: incubations of membrane and fresh tissue slice preparations from nervous tissues; from tissue; host or cells: rat spinal cord (dorsal zone), fresh slices or 100 000 x g membrane fraction
T1 sequence (P07861 1-750): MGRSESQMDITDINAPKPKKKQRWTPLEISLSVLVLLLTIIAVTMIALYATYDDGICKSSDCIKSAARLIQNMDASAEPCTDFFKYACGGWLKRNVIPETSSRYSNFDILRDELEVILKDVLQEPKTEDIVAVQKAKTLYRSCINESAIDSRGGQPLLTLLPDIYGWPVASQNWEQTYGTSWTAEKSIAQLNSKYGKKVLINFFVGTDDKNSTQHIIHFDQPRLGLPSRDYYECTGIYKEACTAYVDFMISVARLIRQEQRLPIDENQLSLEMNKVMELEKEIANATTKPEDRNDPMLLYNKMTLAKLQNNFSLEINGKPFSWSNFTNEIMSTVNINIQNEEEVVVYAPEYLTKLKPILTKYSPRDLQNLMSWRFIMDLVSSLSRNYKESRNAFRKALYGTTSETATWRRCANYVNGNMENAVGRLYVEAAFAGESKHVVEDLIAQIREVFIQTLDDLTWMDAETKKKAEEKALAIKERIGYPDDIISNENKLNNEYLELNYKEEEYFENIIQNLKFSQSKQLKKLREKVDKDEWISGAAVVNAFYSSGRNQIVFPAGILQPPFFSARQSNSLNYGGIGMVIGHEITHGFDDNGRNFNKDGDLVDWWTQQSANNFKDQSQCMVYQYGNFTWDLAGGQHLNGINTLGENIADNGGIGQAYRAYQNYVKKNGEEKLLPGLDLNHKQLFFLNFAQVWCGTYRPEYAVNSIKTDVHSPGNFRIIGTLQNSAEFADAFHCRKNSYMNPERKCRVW
Description: (§1) For the experiments of analysis of the NEP peptidase activity, an ex vivo model using incubations of membrane and fresh tissue slice preparations from nervous tissues that are known to be appropriate for exploring NEP peptidase activity: i.e. the dorsal zone of rat spinal cord, was first developed. […] (NEN, 12.5-25 nM) were used.
(§2) The objective was to measure the NEP-specific endoproteolysis of these substrates.
The C-18 Sep-Pak cartridges (Waters) were used to analyze the hydrolysis of the radiolabeled peptides: they separate compounds according to their differences in polarity. This solid-phase extraction procedure allows isolating the substrate from its metabolites, since the hydrophobic character of the peptide metabolites is reduced or even lost compared to the intact peptide substrate.
The radioactivity of eluted and isolated compounds is determined by liquid scintillation spectrometry.

NEP [2] = target: T1, NEP; assay: Met-enkephalin degradation by rat spinal cord slices, RIA assay; type: biochemical; conditions: 10 μM; fresh spinal cord slices; 20 min at 25° C.; 10 μM Met-enkephalin
Description: as §1, §2

NEP [3] = target: T1, NEP; assay: Met-enkephalin hydrolysis by rat spinal cord slices and membrane preparations, RP-HPLC analysis; type: biochemical; conditions: for inhibition of enkephalinase activity over the time of incubation: 37° C., from 10 to 30 min, 10 μM Phosphoramidon, 1 μM Thiorphan
Description: The organs are rapidly removed, dissected on ice, freed of nerve fibers and of adipose tissues and then washed in cold oxygenated glucose-and bicarbonate-containing Krebs Ringer (KRBG) solution, whose composition is the following: 120 mM NaCl-5 mM KCl-1.2 mM KH2PO4-27.5 mM NaHCO3-2.6 mM CaCl2-0.67 mM MgSO4-5.9 mM glucose. The slices of tissues are prepared either manually with the aid of a scalpel (1-2 mm thick), or mechanically with the aid of a “Tissue Chopper” (1 mm thick). Slices are then dispersed into reaction tubes where they are subjected to three successive washes in ice-cold oxygenated KRBG. […] The organs dissected out and washed in ice-cold KRBG are homogenized at 4° C. in 10 volumes (vol./wt.) of 50 mM Tris/HCl buffered at pH 7.2, using a Teflon-glass homogenizer (3×5 sec.). A first centrifugation of 5 min. at 1000×g and 4° C. makes it possible to remove the tissular debris and the nuclei in the pellet. A second centrifugation of the supernatant at 100 000×g and 5° C. concentrates the membrane fraction into the pellet, which will be superficially washed three times with cold Tris/HCl buffer and resuspended in fresh buffer using a Kontes homogenizer, aliquoted and stored at -80° C. while waiting to be used as enzyme source, at least until three months. For the experiments of analysis of the NEP peptidase activity, an ex vivo model using incubations of membrane and fresh tissue slice preparations from nervous tissues that are known to be appropriate for exploring NEP peptidase activity: i.e. the dorsal zone of rat spinal cord, was first developed. The metabolism rate of the NEP-sensitive peptides was measured using the both NEP substrates involved in the signaling of the nociceptive response: the neuropeptides Met-enkephalin and Substance P. […] (NEN, 12.5-25 nM) were used. The objective was to measure the NEP-specific endoproteolysis of these substrates. […] Furthermore, for studying the functional role of […] NO: 1), the reaction was carried out in the presence of the SMR1-peptide alone or combined with specific inhibitors of membrane peptidases which could inactivate the […] NO: 1) peptide by cleaving its C-terminal end: an inhibitor of carboxypeptidase […], 10 μM, Sigma) and an inhibitor of dipeptidylpeptidase IV (DPPIV inhibitor, 10 μM, Roche). […] Samples are kept at -30° C. until the measurement of their intact substrate and its metabolites content. The membrane preparations are preincubated in 50 mM Tris/HCl buffered at pH 7.2 and containing 10 μM Bestatin, at 25, 30 or 37° C. in constantly shaken water, in the presence or in the absence of NEP inhibitor. […] Samples are kept at -30° C. until the measurement of their intact substrate and its metabolites content. HPLC is a highly resolutive procedure that allows one to isolate, and detect by coupled spectrophotometer analysis, the non-radioactive peptides whose concentration is at least 1 to 10 μM. The C-18 RP-HPLC is based on the same principle as the C-18 Sep-Pak cartridge. The chromatographic analyses were used to study the hydrolysis of Met-Enkephalin, that were done on a C-18 LUNA analytical column (150×4.6 mm inner diameter, AIT) packed with 5 μm-diameter beads. […] Their identification and relative quantification (peak height) are checked by continuously monitoring the UV absorbance at 254 nm of column outflow. In first series of experiment, the slices and the membrane preparations of spinal cord tissues were incubated at 30° C. in a 1 ml final volume of KRBG, and at 37° C. in a 0.25 ml final volume of Tris/HCl 50 mM, pH 7.2, respectively.

male Wistar/AF EOPS rats [4] = assay: Behavioral despair test (forced swimming); type: in vivo, rat; conditions: first 5 minutes, n = 10
male Wistar/AF EOPS rats [5] = assay: Behavioral despair test (forced swimming); type: in vivo, rat
Description: Forty male Wistar/AF EOPS rats (Iffa-Credo Breeding Centre, 69-St-Germain sur l'Arbresle, France), weighing 300 to 320 g, were used. On arrival, the rats were labelled and distributed randomly in pairs into type F polycarbonate cages (48×27×20 cm, U.A.R., 91-Epinay-Sur-Orge, France). The animals were stabled in an air-conditioned animal house, at a temperature of 22-24° C. The rats were given food (M25 croquettes, Ets Pietrement, 77-Provins, France) and drink ad libitum and were subjected to a 12-hour light-darkness cycle.
After one week of familiarization with the laboratory conditions, the rats were weighed and distributed randomly into 3 treatment groups (n=12). The rats of the different groups will all be handled in the same way and under the same conditions.
The behavioral despair test takes place over two sessions: • a 15-minute test session; • a 5-minute retest session, performed 24 hours later.
During the test session, the rat was subjected to forced swimming in a Plexiglas cylinder (20 cm in diameter and 50 cm in height, containing 25 cm of water at 25° C.) and its behavior was recorded over 15 minutes. At the end of the test, the rat was removed from the water, dried gently, treated and then returned to its dwelling cage.
During the retest, 24 hours later, the rat was again placed in the water and its behavior was recorded over 5 minutes.
The recorded variables are the period of immobility during the first 5 minutes of both the test and the retest.
The peptide FG-005 (SMR1-QHNPR) (SEQ ID NO: 1) was suspended at a rate of 500 μg per 5 ml of 0.01N acetic acid, and then diluted with PBS to be administered at doses of 50 and 100 μg/kg via the i.v. route into the dorsal caudal vein of the rat, immediately after the test and 300 and 5 minutes before the retest the following day.
A bilateral probability paired t test was used to compare the two periods of immobility of the test with those of the retest in each of the groups. The results are expressed as an average ±standard error of mean (SEM)(FIG. 4). The statistical and graphical processing was performed using Statview5 and DeltaGraph® Pro 3.5 software.

Row | inhibition at 10 µM (NEP [1]) [%] | protection of Met-enkephalin from degradation (RIA) (NEP [2]) [%] | inhibition at 1 µM (NEP [3]; 1 μM, membrane preparations and fresh tissue slices, 10 min incubation at 37° C., read-out: inhibition of Met-enkephalin hydrolysis (enkephalinase activity)) [%] | inhibition at 10 µM (NEP [3]; 10 μM, spinal cord slices, 20 min at 25° C., Met-enkephalin 10 μM, read-out: inhibition of Met-enkephalin degradation (RP-HPLC)) [%] | inhibition of enkephalinase activity over the time of incubation (NEP [3]) | inhibition at 10 µM (NEP [3]; 10 μM, membrane preparations and fresh tissue slices, 10 min incubation at 37° C., read-out: inhibition of Met-enkephalin hydrolysis (enkephalinase activity)) [%] | inhibition of Met-enkephalin degradation (RP-HPLC) (NEP [3]; 10 μM, spinal cord slices, 20 min at 25° C., Met-enkephalin 10 μM) | SMILES | Immobility period, Retest (male Wistar/AF EOPS rats [4]; 0.5 mg/kg i.p., 1440, 300, 30 min before the retest) | Immobility period, Test (male Wistar/AF EOPS rats [4]; 8-OH-DPAT group, 0.5 mg/kg i.p., test session before any treatment) | change of period of immobility, retest compared with test (male Wistar/AF EOPS rats [5]; 8-OH-DPAT treated rats) | overall effect in the behavioral despair test (male Wistar/AF EOPS rats [5]; FG-005 50 and 100 μg/kg i.v., 8-OH-DPAT as reference substance)
1 | 60 to 65 | 100 | 80 to 90 | 80 | almost complete inhibition |  |  | O=C(O)CNC(=O)C(CS)Cc1ccccc1 (centres unmarked) [Thiorphan] |  |  |  | 
2 |  |  |  |  |  |  |  | CCCN(CCC)C1CCc2cccc(O)c2C1 (centres unmarked) [8-OH-DPAT, reference compound] | 31.60 ± 11.51 | 109.20 ± 11.43 | significantly reduce their period of immobility | significant anti-resignation effect
3 | 60 to 65 | 96 |  |  | almost complete inhibition | 80 to 90 | complete inhibition | CC(C)C[C@H](NP(=O)(O)O[C@@H]1O[C@@H](C)[C@H](O)[C@@H](O)[C@H]1O)C(=O)N[C@@H](Cc1c[nH]c2ccccc12)C(=O)O [Phosphoramidon] |  |  |  | 

Source: patent US7423020B2, “Treatment of mood disorders by administration of SMR1” (Institut Pasteur, priority 2001, dated 2008)
